The results in this text go back to US12312370B2, “Immunoproteasome inhibitors” (Principia Biopharma Inc., priority 2017, dated 2025).

Assay [1] addresses immunoproteasome LMP7/B5i subunit (Homo sapiens, UniProt P28062). As to the kind of experiment: Caliper-based proteasome enzymatic activity assay, LMP7. The format is biochemical. Particulars: human recombinant immunoproteasome 0.3 nM, FAM-labeled peptide substrate 1 μM, rt 3 h; read-out: LMP7 subunit IC50.
In assay [2] the target is constitutive proteasome β5c unit (Homo sapiens, UniProt P28074). As to the kind of experiment: Caliper-based proteasome enzymatic activity assay, β5c. The class given is biochemical. Particulars: human recombinant constitutive proteasome 0.3 nM, FAM-labeled peptide substrate 1 μM, rt 3 h; read-out: β5c subunit IC50.

The IC50 is the point on the concentration scale where inhibition reaches its midpoint. In the case of `C=CC(=O)N1C2CCC1(COC(=O)N[C@@H](Cc1ccc(F)cc1)B(O)O)CC2` [Example 76, (R)-(1-((((7-acryloyl-7-azabicyclo[2.2.1]heptan-1-yl)methoxy)carbonyl)amino)-2-(4-fluorophenyl)ethyl)boronic acid], the IC50 in assay [1] was 21.1 nM; in assay [2], 4030 nM.
`CC1(C)CN(C(C)(C)C=C(C#N)C(=O)N2C3CCC2(COC(=O)N[C@@H](Cc2ccccc2)B(O)O)CC3)CCO1` [Example 119, (R)-(1-((((7-(2-cyano-4-(2,2-dimethylmorpholino)-4-methylpent-2-enoyl)-7-azabicyclo[2.2.1]heptan-1-yl)methoxy)carbonyl)amino)-2-phenylethyl)boronic acid]: the IC50 was 1 nM in assay [1] and 685 nM in assay [2].
Turning to `CC(C)C=C(C#N)C(=O)N1CCC[C@@H]1COC[C@H](NCC(F)(F)F)C(=O)N[C@@H](Cc1coc2ccccc12)B(O)O` [Example 31, ((R)-2-(benzofuran-3-yl)-1-((S)-3-(((R)-1-(2-cyano-4-methylpent-2-enoyl)pyrrolidin-2-yl)methoxy)-2-((2,2,2-trifluoroethyl)amino)propanamido)ethyl)boronic acid], the results for the IC50 in assay [1] and in assay [2] were 11.6 nM and 39.4 nM, respectively.
Consider `C=CC(=O)N1CCCC(C)(OC(=O)N[C@@H](Cc2ccc(F)cc2)B(O)O)C1` (mixture of isomers) [Example 91, ((1R)-1-((((1-acryloyl-3-methylpiperidin-3-yl)oxy)carbonyl)amino)-2-(4-fluorophenyl)ethyl)boronic acid], for which the IC50 in assay [1] and in assay [2] was more than 5000 nM throughout.
As to `CC(C)(C=C(C#N)C(=O)N1C2CCC1(COC(=O)N[C@@H](Cc1ccccc1)B(O)O)CC2)N1CC2CC(C1)O2` [Example 132, ((1R)-1-((((7-(4-(6-oxa-3-azabicyclo[3.1.1]heptan-3-yl)-2-cyano-4-methylpent-2-enoyl)-7-azabicyclo[2.2.1]heptan-1-yl)methoxy)carbonyl)amino)-2-phenylethyl)boronic acid], the values for the IC50 in assay [1] and in assay [2] were 0.8 nM and 1080 nM, respectively.
On to `COC(=O)N1CCN(C(C)(C)C=C(C#N)C(=O)N2CCCC[C@H](OC(=O)N[C@@H](Cc3ccccc3)B(O)O)C2)CC1` [Example 108, ((R)-1-(((((S)-1-(2-cyano-4-(4-(methoxycarbonyl)piperazin-1-yl)-4-methylpent-2-enoyl)azepan-3-yl)oxy)carbonyl)amino)-2-phenylethyl)boronic acid], for which the figures for the IC50 in assay [1] and in assay [2] were 1.2 nM and 3000 nM, respectively.
For `C=CC(=O)N1CCC[C@H](OC(=O)N[C@@H](Cc2ccc(C(F)(F)F)cc2)B(O)O)C1` [Example 66, ((R)-1-(((((S)-1-acryloylpiperidin-3-yl)oxy)carbonyl)amino)-2-(4-(trifluoromethyl)phenyl)ethyl)boronic acid], in that order: 148 nM and more than 5000 nM.
For `CC(C)(C=C(C#N)C(=O)N1CCC[C@H](OC(=O)N[C@@H](Cc2ccccc2)B(O)O)C1)N1CCC(F)(F)C1` [Example 60, ((R)-1-(((((S)-1-(2-cyano-4-(3,3-difluoropyrrolidin-1-yl)-4-methylpent-2-enoyl)piperidin-3-yl)oxy)carbonyl)amino)-2-phenylethyl)boronic acid], in that order: 1.4 nM and 463 nM.
The corresponding values for `C=CC(=O)N1CC[C@H]1COC(=O)N[C@@H](Cc1ccccc1)B(O)O` [Example 51, ((R)-1-(((((S)-1-acryloylazetidin-2-yl)methoxy)carbonyl)amino)-2-phenylethyl)boronic acid] are 256 nM and 1430 nM.
Turning to `CC(C)(C=C(C#N)C(=O)N1C2CCC1(COC(=O)N[C@@H](CCc1ccccc1)B(O)O)CC2)N1CCC(F)(F)C1` [Example 77, (R)-(1-((((7-(2-cyano-4-(3,3-difluoropyrrolidin-1-yl)-4-methylpent-2-enoyl)-7-azabicyclo[2.2.1]heptan-1-yl)methoxy)carbonyl)amino)-3-phenylpropyl)boronic acid], the IC50 in assay [1] came out at 0.9 nM; in assay [2] it was 3280 nM.
The corresponding values for `CC(C)(C=C(C#N)C(=O)N1CC[C@H](COC(=O)N[C@@H](Cc2ccccc2)B(O)O)C1)N1CCOCC1` [Example 99, ((R)-1-(((((S)-1-(2-cyano-4-methyl-4-morpholinopent-2-enoyl)pyrrolidin-3-yl)methoxy)carbonyl)amino)-2-phenylethyl)boronic acid] are 19.3 nM and 3760 nM.
The corresponding values for `CC1(C)CCN(C(C)(C)C=C(C#N)C(=O)N2CCC[C@H](OC(=O)N[C@@H](Cc3coc4ccccc34)B(O)O)C2)C1` [Example 68, ((R)-2-(benzofuran-3-yl)-1-(((((S)-1-(2-cyano-4-(3,3-dimethylpyrrolidin-1-yl)-4-methylpent-2-enoyl)piperidin-3-yl)oxy)carbonyl)amino)ethyl)boronic acid] are 31.8 nM and 1240 nM.
Consider `CC(C)(C=C(C#N)C(=O)N1C[C@@H](F)[C@@H](OC(=O)N[C@@H](Cc2ccccc2)B(O)O)C1)N1CCC(F)(F)C1` [Example 125, ((R)-1-(((((3S,4R)-1-(2-cyano-4-(3,3-difluoropyrrolidin-1-yl)-4-methylpent-2-enoyl)-4-fluoropyrrolidin-3-yl)oxy)carbonyl)amino)-2-phenylethyl)boronic acid], for which the values for the IC50 in assay [1] and in assay [2] were 3.7 nM and 810 nM, respectively.
The corresponding values for `CC(C)(C=C(C#N)C(=O)N1CC[C@@H]1COC(=O)N[C@@H](Cc1ccccc1)B(O)O)N1CCC(F)(F)C1` [Example 54, ((R)-1-(((((R)-1-(2-cyano-4-(3,3-difluoropyrrolidin-1-yl)-4-methylpent-2-enoyl)azetidin-2-yl)methoxy)carbonyl)amino)-2-phenylethyl)boronic acid] are 2.7 nM and 504 nM.
As for `CC(C)C=C(C#N)C(=O)NCCCC[C@H](NC(=O)[C@H](C)NC(=O)C(C)C)C(=O)N[C@@H](CC(C)C)B(O)O` [Example 1, ((R)-1-((S)-6-(2-cyano-4-methylpent-2-enamido)-2-((S)-2-isobutyramidopropanamido)hexanamido)-3-methylbutyl)boronic acid], the IC50 was 20.9 nM in assay [1] and 12.1 nM in assay [2].
As to `CC(C)(C=C(C#N)C(=O)N1CCCC[C@@H](OC(=O)N[C@@H](Cc2ccccc2)B(O)O)C1)N1CCC(F)(F)C1` (single isomer, unassigned) [Example 105], the IC50 in assay [1] worked out at 1.6 nM; in assay [2], 1340 nM.
Consider `C=CC(=O)N1C[C@H](F)[C@H](OC(=O)N[C@@H](Cc2ccccc2)B(O)O)C1` [Example 115, ((R)-1-(((((3R,4S)-1-acryloyl-4-fluoropyrrolidin-3-yl)oxy)carbonyl)amino)-2-phenylethyl)boronic acid], for which the IC50 came to 18.3 nM in assay [1] and 207 nM in assay [2].
The corresponding values for `CC(C)(C=C(C#N)C(=O)N1CCC[C@H](OC(=O)N[C@@H](Cc2ccccc2)B(O)O)C1)N1CCN(C2COC2)CC1` [Example 79] are 5.3 nM and 2780 nM.
The corresponding values for `C=C(F)C(=O)N1C2CCC1(COC(=O)N[C@@H](Cc1ccc(F)cc1)B(O)O)CC2` [Example 75, (R)-(1-((((7-(2-fluoroacryloyl)-7-azabicyclo[2.2.1]heptan-1-yl)methoxy)carbonyl)amino)-2-(4-fluorophenyl)ethyl)boronic acid] are 129 nM and more than 5000 nM.
For `C=CC(=O)N1C2CCC1(COC(=O)N[C@@H](CCc1ccccc1)B(O)O)CC2` [Example 71, (R)-(1-((((7-acryloyl-7-azabicyclo[2.2.1]heptan-1-yl)methoxy)carbonyl)amino)-3-phenylpropyl)boronic acid], in that order: 528 nM and more than 5000 nM.
For the compound `CC(C)(C=C(C#N)C(=O)N1CC[C@H](OC(=O)N[C@@H](Cc2ccccc2)B(O)O)C1)N1CCC(F)(F)C1` [Example 89, ((R)-1-(((((S)-1-(2-cyano-4-(3,3-difluoropyrrolidin-1-yl)-4-methylpent-2-enoyl)pyrrolidin-3-yl)oxy)carbonyl)amino)-2-phenylethyl)boronic acid], the half-inhibitory concentration (IC50) was 1.8 nM in assay [1] and 1140 nM in assay [2].
The corresponding values for `CN1CCN(C(C)(C)C=C(C#N)C(=O)N2CCC[C@H](OC(=O)N[C@@H](Cc3ccccc3)B(O)O)C2)CC1` [Example 80, ((R)-1-(((((S)-1-(2-cyano-4-methyl-4-(4-methylpiperazin-1-yl)pent-2-enoyl)piperidin-3-yl)oxy)carbonyl)amino)-2-phenylethyl)boronic acid] are 3.9 nM and 1380 nM.
Take `CC(C)C=C(C#N)C(=O)N(C)c1cccc(C[C@H](NCC(F)(F)F)C(=O)N[C@@H](Cc2ccccc2)B(O)O)c1` [Example 26, ((R)-1-((S)-3-(3-(2-cyano-N,4-dimethylpent-2-enamido)phenyl)-2-((2,2,2-trifluoroethyl)amino)propanamido)-2-phenylethyl)boronic acid]: the figures for the IC50 in assay [1] and in assay [2] were 11 nM and 362 nM, respectively.
For `CC(C)(C=C(C#N)C(=O)N1C[C@H](OC(=O)N[C@@H](Cc2ccccc2)B(O)O)[C@@H](F)C1)N1CCC(F)(F)C1` [Example 109, ((R)-1-(((((3S,4S)-1-(2-cyano-4-(3,3-difluoropyrrolidin-1-yl)-4-methylpent-2-enoyl)-4-fluoropyrrolidin-3-yl)oxy)carbonyl)amino)-2-phenylethyl)boronic acid], the values for the IC50 in assay [1] and in assay [2] were 3.5 nM and 621 nM, respectively.
Consider `CC(C)(C=C(C#N)C(=O)N1CCCC[C@H](OC(=O)N[C@@H](Cc2ccccc2)B(O)O)C1)N1CCC(F)(F)C1` [Example 106, ((R)-1-(((((S)-1-(2-cyano-4-(3,3-difluoropyrrolidin-1-yl)-4-methylpent-2-enoyl)azepan-3-yl)oxy)carbonyl)amino)-2-phenylethyl)boronic acid], for which the values for the IC50 in assay [1] and in assay [2] were 2.5 nM and 2660 nM, respectively.
